According to US12187667B2, “Preparation systems and preparation methods for high-quality xylitol crystals” (ZHEJIANG HUAKANG PHARMACEUTICAL CO., LTD., priority 2022, dated 2025):

Key:
[1] = Acidity (pH) of xylitol crystal by the Chinese Pharmacopoeia method, 10 g crystal to 20 ml water; type: physicochemical; details: 10 g crystal to 20 ml pure water; for pH of xylitol after one month storage: crystal stored at room temperature for one month; for pH of xylitol after one week storage: crystal stored at room temperature for one week; for pH of xylitol: freshly prepared crystal
Procedure: The acidity of prepared xylitol crystal B was measured according to the method in the Chinese Pharmacopoeia. Xylitol solution was prepared with pure water in a proportion of 10 g crystal to 20 ml water. The pH of the xylitol solution in this Example was measured to be 6.06. After the obtained xylitol crystal B were stored at room temperature for one week, the pH of the xylitol solution was measured to be 6.03 using the same method. After the xylitol crystal was stored at room temperature for one month, the pH of the xylitol solution was measured to be 6.01 using the same method. The acidity of prepared xylitol crystal B was measured according to the method in the Chinese Pharmacopoeia. Xylitol solution was prepared with pure water in a proportion of 10 g crystal to 20 ml water. The pH of the xylitol solution in this Example was measured to be 6.12. After the obtained xylitol crystal B was stored at room temperature for one week, the pH of the xylitol solution was measured to be 6.08 using the same method. After the xylitol crystal was stored at room temperature for one month, the pH of the xylitol solution was measured to be 6.05 using the same method. The acidity of prepared xylitol crystal B was measured according to the method in the Chinese Pharmacopoeia. Xylitol solution was prepared with pure water in a proportion of 10 g crystal to 20 ml water. The pH of the xylitol solution in this Example was measured to be 6.09. After the obtained xylitol crystal B was stored at room temperature for one week, the pH of the xylitol solution was measured to be 6.07 using the same method. After the xylitol crystals were stored at room temperature for one month, the pH of the xylitol solution was measured to be 6.05 using the same method. The acidity of prepared xylitol crystal was measured according to the method in the Chinese Pharmacopoeia. Xylitol solution was prepared with pure water in a proportion of 10 g crystal to 20 ml water. The pH of the xylitol solution in this comparative example was measured to be 5.02. After the obtained xylitol crystals was stored at room temperature for one week, the pH of the xylitol solution was measured to be 4.85 using the same method. After the xylitol crystal was stored at room temperature for one month, the pH of the xylitol solution was measured to be 4.64 using the same method. The acidity of prepared xylitol crystal was measured according to the method in the Chinese Pharmacopoeia. Xylitol solution was prepared with pure water in a proportion of 10 g crystal to 20 ml water. The pH of the xylitol solution in this Contrast was measured to be 5.04. After the obtained xylitol crystal was stored at room temperature for one week, the pH of the xylitol solution was measured to be 4.81 using the same method. After the xylitol crystal was stored at room temperature for one month, the pH of the xylitol solution was measured to be 4.68 using the same method. The acidity of prepared xylitol crystal was measured according to the method in the Chinese Pharmacopoeia. Xylitol solution was prepared with pure water in a proportion of 10 g crystal to 20 ml water. The pH of the xylitol solution in this comparative example was measured to be 5.03. After the obtained xylitol crystal was stored at room temperature for one week, the pH of the xylitol solution was measured to be 4.90 using the same method. After the xylitol crystal was stored at room temperature for one month, the pH of the xylitol solution was measured to be 4.73 using the same method.

[2] = cited from earlier work
[3] = pH of xylitol crystal prepared from xylitol solutions with different compositions; type: physicochemical; details: crystal prepared from xylitol solution of the stated composition
Description: In the production process of xylitol, there are two main factors can affect the pH of the product, one of which is ion exchange process. When xylitol solution passes through cation and anion exchange columns, H^+ and OH^− in resins are exchanged out, respectively. Due to the difference of exchange capacity between cation exchange column and anion exchange column, xylitol crystal products may have different pH. The other factor affecting the pH of xylitol product is the difference in composition of xylitol solution, which leads to a great difference in the pH of xylitol crystal.

[4] = pH of crude xylitol crystal after first crystallization; type: physicochemical; details: after first centrifuge and fluidization drying, before recrystallization
Procedure: Step 12, constant vacuum degree of the first crystallization kettle 7 was maintained at −0.095 MPa to further evaporate the xylitol concentrate solution. When temperature of the first crystallization kettle 7 dropped to 65° C., 0.001% xylitol crystal seeds (80-100 mesh) were added, and the system was maintained at constant temperature of 65° C. for evaporation and crystallization for 8 h. Finally, a crude xylitol crystal with purity of 99.5% and pH of 4.87 was obtained by centrifugal separation treatment of the first centrifuge 8 and fluidization drying treatment of the fluidization drying bed 9. At the same time, the primary centrifugal mother liquor C with purity of 90% obtained by the centrifugal separation treatment of the first centrifuge 8 was backset to the blending tank 1.
Step 22, constant vacuum degree of the first crystallization kettle 7 was maintained at −0.095 MPa to further evaporate the xylitol concentrate solution. When temperature of the first crystallization kettle 7 dropped to 64° C., 0.001% xylitol crystal seeds (100-120 mesh) were added, and the system was maintained at constant temperature of 64° C. for evaporation and crystallization for 12 h. Finally, crude xylitol crystal with purity of 99.6% and pH of 4.9 was obtained by centrifugal separation treatment of the first centrifuge 8 and fluidization drying treatment of the fluidization drying bed 9. At the same time, the primary centrifugal mother liquor C with purity of 89.5% obtained by the centrifugal separation treatment of the first centrifuge 8 was backset to the blending tank 1.
Step 32, constant vacuum degree of the first crystallization kettle 7 was maintained at −0.095 MPa to further evaporate the xylitol concentrate solution. When temperature of the first crystallization kettle 7 dropped to 66° C., 0.002% xylitol crystal seeds (60-80 mesh) were added, and the system was maintained at constant temperature of 66° C. for evaporation and crystallization for 10 h. […]

[5] = listed as Comparative Example 2
[6] = listed as Comparative Example 1
[7] = listed as Comparative Example 3

With `OC[C@@H](O)[C@H](O)[C@@H](O)CO` [compound 2, xylitol] the “pH of xylitol after one month storage” value [1] was 4.68, the “pH of xylitol after one month storage” value [1, 5] was 4.68 and the “pH of xylitol after one week storage” value [1] was 4.81. The “pH of xylitol after one week storage” value [1, 5] was 4.81, the pH of xylitol [1] was 5.04 and the pH of xylitol [1, 5] was 5.04.

In the case of `O=C[C@@H](O)[C@H](O)[C@H](O)CO` [Arabinose], the “Acidity coefficient (pKa)” value [2] is given as 12.46 ± 0.2.

In the case of `OC[C@@H](O)[C@H](O)[C@@H](O)CO` [Example 3, xylitol], the “pH of xylitol after one month storage” value [1] is reported as 6.05, the “pH of xylitol after one week storage” value [1] is reported as 6.07 and the pH of xylitol [1] is reported as 6.09.

For `OC[C@@H](O)[C@H](O)[C@@H](O)CO` [100% xylitol, xylitol], the “pH of xylitol crystal” value [3] was 6.02.

With `OC[C@@H](O)[C@H](O)[C@@H](O)CO` [Example 1, xylitol] the “pH of xylitol after one month storage” value [1] was 6.01, the “pH of xylitol after one week storage” value [1] was 6.03 and the pH of xylitol [1] was 6.06.

With `OC[C@@H](O)[C@H](O)[C@@H](O)CO` [Example 2 crude xylitol crystal, xylitol] the “pH of crude xylitol crystal” value [4] was 4.9.

With `OC[C@@H](O)[C@H](O)[C@@H](O)CO` [Example 3 crude xylitol crystal, xylitol] the “pH of crude xylitol crystal” value [4] was 4.99.

For `OC[C@@H](O)[C@H](O)[C@@H](O)CO` [Xylitol], the “Acidity coefficient (pKa)” value [2] is listed as 13.24 ± 0.2.

For `O=C[C@H](O)[C@@H](O)[C@H](O)CO` [Xylose], the “Acidity coefficient (pKa)” value [2] is given as 12.14.

In the case of `OC[C@@H](O)[C@H](O)[C@@H](O)CO` [Example 2, xylitol], the “pH of xylitol after one month storage” value [1] is reported as 6.05, the “pH of xylitol after one week storage” value [1] is reported as 6.08 and the pH of xylitol [1] is reported as 6.12.

With `OC[C@@H](O)[C@H](O)[C@@H](O)CO` [Example 1 crude xylitol crystal, xylitol] the “pH of crude xylitol crystal” value [4] was 4.87.

With `OC[C@@H](O)[C@H](O)[C@@H](O)CO` [compound 1, xylitol] the “pH of xylitol after one month storage” value [1] was 4.64, the “pH of xylitol after one month storage” value [1, 6] was 4.64 and the “pH of xylitol after one week storage” value [1] was 4.85. The “pH of xylitol after one week storage” value [1, 6] was 4.85, the pH of xylitol [1] was 5.02 and the pH of xylitol [1, 6] was 5.02.

For `O=C[C@H](O)[C@@H](O)[C@@H](O)[C@H](O)CO` [galactose], the “Acidity coefficient (pKa)” value [2] is given as 12.35.

In the case of `OC[C@@H](O)[C@H](O)[C@@H](O)CO` [compound 3, xylitol], the “pH of xylitol after one month storage” value [1] is reported as 4.73, the “pH of xylitol after one month storage” value [1, 7] is reported as 4.73 and the “pH of xylitol after one week storage” value [1] is reported as 4.90. For the same molecule, the “pH of xylitol after one week storage” value [1, 7] was 4.90, the pH of xylitol [1] was 5.03 and the pH of xylitol [1, 7] was 5.03.
